One may read the IC50 as the concentration needed to halve the response being measured.

One assay deals with SMN2 mRNA. The assay can be described thus: RT-qPCR splicing assay, SMN2 mRNA. The settings on record: Homo sapiens, canonical junction qPCR panel, Table 4; read-out: SMN2 IC50 (decrease in CJ mRNA levels). The format is cell-based, human. The procedure, abridged: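 A673 or K562 cells treated 24 h at 37 °C with an 11-point 3-fold dilution series (top 10 uM, DMSO ≤0.25%). Lysates went directly to one-step RT-qPCR quantifying canonical (CJ) and alternative-exon (AJ) junctions, normalized to GAPDH, GUSB or PPIA. Values from ΔΔCt versus DMSO, RQ = 2^(−ΔΔCt), expressed as percentage response.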
On the technique in general: Quantitative PCR measures a nucleic acid by following its amplification.

A further assay deals with Target C. In words: RT-qPCR canonical junction panel assay, Target C mRNA. As to conditions: Table 4, read-out: Target C IC50 (decrease in CJ mRNA levels). It counts as cell-based. The essentials:
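A673 or K562 cells treated with compound; CJ mRNA quantified by junction-spanning RT-qPCR probe after cDNA synthesis, normalised to GAPDH, GUSB or PPIA and DMSO (2^−ΔΔCt), scaled to set ΔCt assay window; IC50 from 4-parameter fit of CJ decrease.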

Molecules are shown by their SMILES. Bounds are passed on as bounds.

Regarding `Cn1cc2cc(-c3ccc4nc(N5CC[C@@H](NC6CC(F)(F)C6)C5)ccc4n3)c(O)cc2n1` [Compound 385], the results for the IC50 with SMN2 mRNA and in the assay with Target C were < 100 nM and 100 to 1000 nM, respectively.
Consider `Cn1cc2cc(-c3ccc4nc(N5CCC(NCC6CC6)C5)ccc4n3)c(O)c(F)c2n1` (stereo not drawn) [Compound 387, 5-(6-{3-[(cyclopropylmethyl)amino]pyrrolidin-1-yl}-1,5-naphthyridin-2-yl)-7-fluoro-2-methylindazol-6-ol], for which the IC50 with SMN2 mRNA and in the assay on Target C was < 100 nM throughout.
For the compound `CC(C)NC1CCN(c2ccc3nc(-c4cc5cn(C)nc5c(F)c4O)ccc3n2)C1` (stereo not drawn) [Compound 388, 7-fluoro-5-{6-[3-(isopropylamino)pyrrolidin-1-yl]-1,5-naphthyridin-2-yl}-2-methylindazol-6-ol], the IC50 in the assay on SMN2 mRNA and in the assay on Target C was < 100 nM in each case.
On to `Cc1nc2cc(O)c(-c3ccc4nc(N5CCC(NCC6CC6)C5)ccc4n3)cc2o1` (stereo not drawn) [Compound 389, 6-(6-{3-[(cyclopropylmethyl)amino]pyrrolidin-1-yl}-1,5-naphthyridin-2-yl)-2-methyl-1,3-benzoxazol-5-ol], for which the IC50 in the assay on SMN2 mRNA was < 100 nM; in the assay on Target C, 100 to 1000 nM.
On to `Cc1nc2c(C)c(O)c(-c3ccc4nc(N5CCC(NCC6CC6)C5)ccc4n3)cc2o1` (stereo not drawn) [Compound 390, 6-(6-{3-[(cyclopropylmethyl)amino]pyrrolidin-1-yl}-1,5-naphthyridin-2-yl)-2,4-dimethyl-1,3-benzoxazol-5-ol], for which the IC50 in the assay on SMN2 mRNA and with Target C was < 100 nM in each case.
On to `CNC1CCN(c2ccc3nc(-c4cc(F)c5nc(C)cn5c4)ncc3n2)C1` (stereo not drawn) [Compound 393, 1-(2-{8-fluoro-2-methylimidazo[1,2-a]pyridin-6-yl}pyrido[3,2-d]pyrimidin-6-yl)-N-methylpyrrolidin-3-amine], for which the IC50 in the assay on SMN2 mRNA was < 100 nM; in the assay on Target C, 100 to 1000 nM.
As for `Cc1c(O)c(-c2ncc3nc(C4CCNC4)ccc3n2)cc2cn(C)nc12` (stereo not drawn) [Compound 397, 2,7-dimethyl-5-[6-(pyrrolidin-3-yl)pyrido[3,2-d]pyrimidin-2-yl]indazol-6-ol; trifluoroacetic acid], the IC50 with SMN2 mRNA is < 100 nM; in the assay with Target C it was > 10000 nM.
On to `Cc1c(O)c(-c2ncc3nc([C@H]4CCNC4)ccc3n2)cc2cn(C)nc12` [Compound 399], for which the IC50 in the assay on SMN2 mRNA is 100 to 1000 nM; in the assay with Target C, > 10000 nM.
Consider `Cn1cc2cc(-c3ncc4nc(C5CCNCC5)ccc4n3)c(O)c(C#N)c2n1` [Compound 403, 6-hydroxy-2-methyl-5-[6-(piperidin-4-yl)pyrido[3,2-d]pyrimidin-2-yl]indazole-7-carbonitrile; trifluoroacetic acid], for which the IC50 was < 100 nM in the assay on SMN2 mRNA and 1000 to 10000 nM in the assay on Target C.
In the case of `Cn1cc2cc(-c3ccc4nc(N5CCC(NC(C)(C)C)C5)ncc4n3)c(O)cc2n1` (stereo not drawn) [Compound 404, 5-{2-[3-(tert-butylamino)pyrrolidin-1-yl]pyrido[3,2-d]pyrimidin-6-yl}-2-methylindazol-6-ol], the IC50 in the assay with SMN2 mRNA and in the assay with Target C was < 100 nM in each case.
As to `COc1cc(-c2ccc3nc(N4CCC(NC(C)(C)C)C4)ncc3n2)cnn1` (stereo not drawn) [Compound 405, N-tert-butyl-1-[6-(6-methoxypyridazin-4-yl)pyrido[3,2-d]pyrimidin-2-yl]pyrrolidin-3-amine], the half-inhibitory concentration (IC50) in the assay with SMN2 mRNA and in the assay on Target C was 1000 to 10000 nM throughout.
Regarding `CN[C@H]1CCN(c2ccc3nc(-c4cc(C#N)c5nc(C)cn5c4)ncc3n2)C1` [Compound 406, 2-methyl-6-{6-[(3S)-3-(methylamino)pyrrolidin-1-yl]pyrido[3,2-d]pyrimidin-2-yl}imidazo[1,2-a]pyridine-8-carbonitrile], the IC50 in the assay with SMN2 mRNA lay within 100 to 1000 nM; in the assay with Target C it was 1000 to 10000 nM.
The corresponding values for `CN[C@@H]1CCN(c2ccc3nc(-c4cc(C#N)c5nc(C)cn5c4)ncc3n2)C1` [Compound 407, 2-methyl-6-{6-[(3R)-3-(methylamino)pyrrolidin-1-yl]pyrido[3,2-d]pyrimidin-2-yl}imidazo[1,2-a]pyridine-8-carbonitrile] are < 100 nM and 1000 to 10000 nM.
As to `Cc1nc2cc(O)c(-c3ccc4nc(N5CCNCC5)ccc4n3)cc2o1` [Compound 408, 2-methyl-6-[6-(piperazin-1-yl)-1,5-naphthyridin-2-yl]-1,3-benzoxazol-5-ol], the IC50 was < 100 nM in the assay with SMN2 mRNA and 1000 to 10000 nM with Target C.
In the case of `Cc1nc2cc(O)c(-c3ccc4nc(N5CCN[C@@H](C)C5)ccc4n3)cc2o1` [Compound 409], the IC50 in the assay with SMN2 mRNA was < 100 nM; with Target C it was 1000 to 10000 nM.
On to `Cc1nc2cc(O)c(-c3ccc4nc(N5CCN6CCCC6C5)ccc4n3)cc2o1` (stereo not drawn) [Compound 410], for which the IC50 in the assay with SMN2 mRNA was < 100 nM; in the assay with Target C, 100 to 1000 nM.
The corresponding values for `Cc1nc2cc(O)c(-c3ccc4nc(N5CCNC6(CC6)C5)ccc4n3)cc2o1` [Compound 411] are < 100 nM and 1000 to 10000 nM.
Regarding `Cc1nc2cc(O)c(-c3ccc4nc(N5CCC(NC(C)(C)C)CC5)ccc4n3)cc2o1` [Compound 412], the IC50 in the assay with SMN2 mRNA and in the assay on Target C was 100 to 1000 nM each time.
For the compound `Cc1nc2cc(O)c(-c3ccc4nc(N5CC[C@@H](NC(C)(C)C)C5)ncc4n3)cc2o1` [Compound 413, 6-{2-[(3R)-3-(tert-butylamino)pyrrolidin-1-yl]pyrido[3,2-d]pyrimidin-6-yl}-2-methyl-1,3-benzoxazol-5-ol], the IC50 with SMN2 mRNA and with Target C was < 100 nM each time.
As for `Cc1nc2cc(O)c(-c3ccc4nc(N5CC[C@H](NC(C)(C)C)C5)ncc4n3)cc2o1` [Compound 414, 6-{2-[(3S)-3-(tert-butylamino)pyrrolidin-1-yl]pyrido[3,2-d]pyrimidin-6-yl}-2-methyl-1,3-benzoxazol-5-ol], the values for the IC50 in the assay on SMN2 mRNA and with Target C were 100 to 1000 nM and 1000 to 10000 nM, respectively.
Consider `Cc1nc2c(C)c(O)c(-c3ccc4nc(N5CC[C@H](NC(C)C)C5)ncc4n3)cc2o1` [Compound 416, 6-{2-[(3S)-3-(isopropylamino)pyrrolidin-1-yl]pyrido[3,2-d]pyrimidin-6-yl}-2,4-dimethyl-1,3-benzoxazol-5-ol], for which the IC50 in the assay on SMN2 mRNA and in the assay with Target C was < 100 nM throughout.
As to `Cc1nc2cc(O)c(-c3ccc4cc(N5CC[C@@H](NC(C)(C)C)C5)ncc4n3)cc2o1` [Compound 417], the IC50 was < 100 nM in the assay with SMN2 mRNA and 1000 to 10000 nM in the assay with Target C.
The corresponding values for `Cc1nc2cc(O)c(-c3ccc4nc(N5CCN[C@@H](C6CC6)C5)ccc4n3)cc2o1` [Compound 418] are 100 to 1000 nM and 100 to 1000 nM.
Take `Cc1nc2cc(O)c(-c3ccc4nc(N5C[C@@H](C)N[C@@H](C6CC6)C5)ccc4n3)cc2o1` [Compound 419]: the IC50 with SMN2 mRNA was < 100 nM; with Target C, 100 to 1000 nM.
The corresponding values for `Cc1nc2cc(O)c(-c3ccc4nc(N5C[C@@H](C)N[C@@H](C)C5)ccc4n3)cc2o1` [Compound 420] are < 100 nM and 1000 to 10000 nM.
The corresponding values for `Cc1nc2cc(O)c(-c3ccc4nc(N5CCN[C@H](C6CC6)C5)ccc4n3)cc2o1` [Compound 421] are 100 to 1000 nM and 100 to 1000 nM.
On to `Cc1nc2cc(O)c(-c3ccc4nc(N5CCN[C@@H](C(C)C)C5)ccc4n3)cc2o1` [Compound 422], for which the IC50 is < 100 nM in the assay with SMN2 mRNA and 1000 to 10000 nM in the assay with Target C.
The corresponding values for `Cc1nc2cc(O)c(-c3ccc4nc(N5CCC(N)CC5)ccc4n3)cc2o1` [Compound 424] are < 100 nM and 1000 to 10000 nM.
In the case of `CNC1CCN(c2ccc3nc(-c4cc5oc(C)nc5cc4O)ccc3n2)CC1` [Compound 425], the IC50 was 100 to 1000 nM with SMN2 mRNA and > 10000 nM in the assay on Target C.
Regarding `Cc1nc2c(C)c(O)c(-c3ccc4nc(N5CC[C@H](NC6CC6)C5)ncc4n3)cc2o1` [Compound 433, 6-{2-[(3S)-3-(cyclopropylamino)pyrrolidin-1-yl]pyrido[3,2-d]pyrimidin-6-yl}-2,4-dimethyl-1,3-benzoxazol-5-ol], the IC50 in the assay with SMN2 mRNA is < 100 nM; in the assay on Target C, 100 to 1000 nM.
Take `Cc1nc2cc(O)c(-c3ccc4nc(N5CC[C@H](NC6CC6)C5)ncc4n3)cc2o1` [Compound 435, 6-{2-[(3S)-3-(cyclopropylamino)pyrrolidin-1-yl]pyrido[3,2-d]pyrimidin-6-yl}-2-methyl-1,3-benzoxazol-5-ol]: the IC50 with SMN2 mRNA is < 100 nM; with Target C, 100 to 1000 nM.
Consider `Cc1nc2c(C)c(O)c(-c3ccc4nc(N5CC[C@@H](NC(C)(C)C)C5)ncc4n3)cc2o1` [Compound 436], for which the IC50 with SMN2 mRNA and with Target C was < 100 nM each time.
On to `Cc1nc2c(C)c(O)c(-c3ccc4nc(N5CC[C@H](NC(C)(C)C)C5)ncc4n3)cc2o1` [Compound 437], for which the IC50 with SMN2 mRNA and in the assay on Target C was 100 to 1000 nM in each case.
Turning to `Cc1c(O)c(-c2ccc3nc(N4CC[C@@H](NC5CC5)C4)ncc3n2)cc2cn(C)nc12` [Compound 438, 5-{2-[(3R)-3-(cyclopropylamino)pyrrolidin-1-yl]pyrido[3,2-d]pyrimidin-6-yl}-2,7-dimethylindazol-6-ol], the values for the IC50 in the assay with SMN2 mRNA and in the assay with Target C were < 100 nM and 100 to 1000 nM, respectively.
As for `Cc1c(O)c(-c2ccc3nc(N4CC[C@H](NC5CC5)C4)ncc3n2)cc2cn(C)nc12` [Compound 439, 5-{2-[(3S)-3-(cyclopropylamino)pyrrolidin-1-yl]pyrido[3,2-d]pyrimidin-6-yl}-2,7-dimethylindazol-6-ol], the IC50 with SMN2 mRNA is < 100 nM; with Target C it was 100 to 1000 nM.
For the compound `Cc1nc2c(C)c(O)c(-c3ccc4cc(N5CC[C@@H](NC6CC6)C5)ncc4n3)cc2o1` [Compound 440, 6-{6-[(3R)-3-(cyclopropylamino)pyrrolidin-1-yl]-1,7-naphthyridin-2-yl}-2,4-dimethyl-1,3-benzoxazol-5-ol], the values for the IC50 with SMN2 mRNA and with Target C were < 100 nM and 100 to 1000 nM, respectively.

Source of the values: patent US20250092065A1, “2-(INDAZOL-5-YL)-6-(PIPERIDIN-4-YL)-1,7-NAPHTHYRIDINE DERIVATIVES AND RELATED COMPOUNDS AS MODULATORS FOR SPLICING NUCLEIC ACIDS AND FOR THE TREATMENT OF PROLIFERATIVE DISEASES” (REMIX THERAPEUTICS INC., priority 2022, published 2025).
